# How the values were obtained:
# hypusinated eIF5A = assay: Western blot hypusine versus total eIF5A; assay type: cell-based, mouse, human
# Procedure: (§1) The inventors sought to determine if the decrease in cell viability is due to the inhibition of post translational modification of eIF5A. To test this, all cell lines were treated with GC7 at 100 μM for 48 hours—which were the time point and concentration at which a decrease in cell viability was seen (FIG. 2B). The inventors then collected, performed a western blot and immunoblotted for hypusine, total eIF5A and β-actin as a loading control (FIG. 3A). […] To test if this effect is dose-dependent, 4T1, 67NR and MCF10CA1a cells were treated with various concentrations of GC7 ranging from 0.1 μM to 100 μM. Protein lysates were then collected after 48 hours of treatment and performed a western blot. […] To validate this in breast cancer cells, the inventors immunoblotted for PEAK1 as well as E-cadherin, hypusine, total eIF5A and β-actin as a loading control (FIG. 3B). […] The inventors next looked at cell viability at lower concentrations of GC7, such as 1 μM and 10 μM, where a decrease in hypusinated eIF5A is still achieved but the decrease in cell viability is not as great in lower concentrations that do still target hypusinated eIF5A (FIG. 3C).
# (§2) Cell lines were plated in a 6 well plate at 1e5 cells/mL and left to attach overnight. […] Protein concentrations were determined using Bradford Assay. […] Band intensity graphs were quantified using Fiji software after image thresholding.
# E-cadherin in 4T1 cells = assay: Western blot E-cadherin, TGFβ-induced EMT; assay type: cell-based, mouse; conditions: 10 μM each drug, re-treated with TGFβ 2.5 ng/mL at 48 hours, 96-hour time point
# Procedure: Next, the inventors investigated whether blockade of HDAC6 and DHPS activity could further suppress TGFβ-induced EMT either independently or simultaneously. To test this, 4T1 cells were treated with either TubA at 10 μM, GC7 at 10 μM or both for 48 hours. At this time point, protein lysates were collected as well as phase-contrast images (FIGS. 6B and 6C). At that same time point, the media was changed and the cells were re-treated with the same drugs at the same concentrations; however, this time with the addition of TGFβ at 2.5 ng/mL. The inventors collected protein lysates and phase-contrast images just one day post TGFβ treatment, calling this the 72-hour time point (FIGS. 6B and 6C). In addition, the inventors collected mRNA, protein lysates, phase-contrast and immunofluorescences images two days post TGFβ treatment, calling this the 96-hour time point (FIGS. 6A, 6B, 6C and 6D).
# Cell lines were plated in a 6 well plate at 1e5 cells/mL and left to attach overnight. Cells were then treated if necessary then lysed using Radioimmunoprecipitation assay (RIPA) buffer containing phosphatase and protease inhibitors and left to rotate at 4° C. for at least 3 hours. Lysates were then cleared by centrifugation at 12,000 RPM for 10 minutes at 4° C. Protein concentrations were determined using Bradford Assay. […] Band intensity graphs were quantified using Fiji software after image thresholding.
# MCF10A = assay: Cell proliferation assay (CellTiter 96 AQueous One, MTS); assay type: cell-based, human; conditions: non-malignant mammary cell line
# Procedure: The CellTiter 96® AQueous One Solution (Promega) was used to perform cell proliferation experiments. Cells were plated at 5e3 cells/mL at 200 μL/well in a 96-well plate and allowed to attach overnight. Cells were then treated with indicated drugs the next day at various concentrations. After 72 hours of drug treatments, 40 μL of AQueous One solution was added to each well. Absorbance readings were measured at 490 nm wavelength at 1.5, 2 and 3 hours (absorbance is directly proportional to the number of living cells).
# [1] = tested on: E-cadherin in 67NR cell line; assay: Western blot E-cadherin after GC7; assay type: cell-based, mouse; conditions: increased GC7 concentration, 48 hours; only in 67NR
# Procedure: as §1, §2
structure (smiles),measurement,setting,value
"N=C(N)NCCCCCCCN.O=S(=O)(O)O [GC7, N1-Guanyl-1,7-diaminoheptane]",decrease in hypusinated eIF5A protein activity,"hypusinated eIF5A; 100 μM GC7, 48 hours, 4T1, 67NR, MCF10AT1k, MCF10CA1h and MCF10CA1a",largest decrease in hypusinated eIF5A protein activity
same,hypusinated eIF5A levels (band intensity ratio to total eIF5A),"hypusinated eIF5A; GC7 0.1 μM to 100 μM, 48 hours, 4T1, 67NR and MCF10CA1a",consistently decreased
same,"TGFβ-induced EMT, E-cadherin protein expression",E-cadherin in 4T1 cells,dramatically increased
same,sensitivity to GC7 treatment,MCF10A,one of the most sensitive
same,E-cadherin protein expression,[1],decrease in E-cadherin

# Reference: patent US20190216751A1, “Compositions and Methods for the Treatment and Prevention of Cancer” (California State University Northridge, priority 2017, published 2019)
